# Reference: US20060083759A1, “Stabilization of the profile of release of active substances from a formulation” (priority 2002, published 2006)
# Experiment: release (dissolution) of clarithromycin from tablets at aging / stability testing
# Assay type: physicochemical
# Details: for change of tablet dissolution at aging: clarithromycin particle size over 200 μm
# Description: By comparing the profiles it has been established that the release rate of a high dosage active substance being poorly soluble in an aqueous medium from a formulation changes with aging, which is even more expressed in the conditions of an accelerated stability assay.
# Thus recrystallization is kept at the lowest possible level. In the case of micronizing clarithromycin with large particles also the particle porosity and brittleness are reduced. Micronized clarithromycin can either be already the product of a basic synthesis process or it may be micronized later from clarithromycin with large particles.
smiles,measurement,setting,value
CC[C@H]1OC(=O)[C@H](C)[C@@H](O[C@H]2C[C@@](C)(OC)[C@@H](O)[C@H](C)O2)[C@H](C)[C@@H](O[C@@H]2O[C@H](C)C[C@H](N(C)C)[C@H]2O)[C@](C)(OC)C[C@@H](C)C(=O)[C@H](C)[C@@H](O)[C@]1(C)O [clarithromycin],changes in the release rate,"particle size d(0.9) up to about 30 μm at the most, humidified with a minimum amount of water",minimized
same,change of tablet dissolution at aging,tablets made by aqueous granulation,noticeably decreases
same,change of tablet dissolution at aging,tablets made by direct tabletting,noticeably increases
